In US9579325B2, “Modulators of TNF-α signaling” (Genzyme Corporation, priority 2000, dated 2017):
pIC50: −log10 of the molar value.

Tested on: L929 cells
Assay: TNF High Throughput Screen (TNF-α driven apoptosis assay)
Type: cell-based, mouse
Details: Mus musculus, human TNF-α + actinomycin D; for pIC50: read-out: TNFα IC50; for inhibition at 1 µM: compound at 1 μM, read-out: TNFα % Inh. @ 1 μM
Text: Description of Table V: The results shown in Table V were obtained using the TNF-α assays performed as described in the protocols entitled “Method for TNF High Throughput Screen” and “Method for VCAM High Throughput Screen”, which are detailed below. These assays measure a cellular response to TNF-α stimulation, and the data published in the table are expressed as percentage inhibitions. Percentage inhibition is computed on a scale of 0 to 100% where 0 percent inhibition means the compound has no effect in the assay (the response is indistinguishable from TNF-α treatment alone), and 100% inhibition means that when the compound is present at the stated concentration, the response in the assay is the same as if TNF-α were not added. These two assays measure two different outcomes of TNF-α treatment, cell death and Vascular Cell Adhesion Molecule (VCAM) expression, and capture two of TNF-α's many biological effects. TNF-α induced apoptosis is a mechanism by which TNF-α production during immune/inflammatory responses can lead to direct cellular and tissue damage. TNF-α VCAM expression in endothelial cells is a response that allows leukocytes to leave the blood and enter a site of immune/inflammatory response. Both of these activities could lead to pathology in immune/inflammatory diseases. In the first column of the table, the percentage inhibition of the TNF-α driven apoptosis assay when the compounds are tested at 1 μM concentration is presented. The second column in the table lists the IC50 for the compound, a standard measure using a dilution series in the assay, and fitting a sigmoidal curve to the resulting dose-response curve. The IC50 is the concentration (derived analytically from the sigmoidal function) at which the compound would inhibit 50% of the response in the assay. The third and fourth column list the corresponding analysis for the TNF-α driven VCAM assay. In Table VI, data corresponding to the data in column 1 of Table V is shown, with human cells replacing the mouse cells used in the high throughput screen. […] As a consequence, the compounds will have use in treating more than one TNF-α mediated condition, and may be selected according to the manner in which the condition manifests. This corresponds to the use of these compounds in the treatment of human disease.
TNF High Throughput Screen.
• 1. Plate 4×10^4 L929 cells in 100 μl of complete EMEM in Costar 96 well plates in PM. • 2. The next day, pretreat with compound, inhibitor and control vehicle for 2 hours. • 3. After 2 hours pretreatment, add 10 μl 5 ng/ml human TNF-α and actinomycin D (40 μg/ml final concentration). • 4. Incubate overnight. • 5. In AM, remove supernatant. • 6. Wash on a plate washer (0.9% NaCl). • 7. Add 100 μl Crystal Violet 0.1% in 20% ETOH. • 8. Incubate at RT for 10 minutes. • 9. Wash on plate washer. • 10. Air dry wells at 37° C. • 11. Add 100 μl of methanol to each well. • 12. Shake plates on orbital shaker and read at 595 nm on plate reader. VCAM High Throughput Screen: Protocol: • 1. Plate Primary human umbilical vein endothelial cells at 1.8×10^4 cells/well in a 96-well tissue culture plate. • 2. Return Plates to 37° C. incubator for 48-72 hours before assay. • 3. On assay day, aspirate wells and add 1804, of endothelial growth cell medium (EGM) to each well. • 4. Add Compound to each well. • 5. Shake plates for 3 minutes. • 6. Incubate plate for 1 hour at 37° C. • 7. Add Tumor Necrosis Factor (TNF) at 1.0 ng/ml final concentration. • 8. Shake plates for 3 minutes. • 9. Incubate plate for 2 hours at 37° C. • 10. Remove plate from incubator and wash plate 3 times with phosphate buffered saline (PBS) using a plate washer. • 11. Add anti-VCAM antibody at 0.5 μg/ml final concentration. • 12. Incubate at 4° C. overnight. • 13. Wash 3 times with PBS on plate washer. • 14. Add goat anti-mouse horseradish peroxidase conjugate. • 15. Incubate at room temperature for one hour. • 16. Wash 3 times with PBS on plate washer. • 17. […]

SMILES	pIC50	inhibition at 1 µM [%]
N#Cc1ccc(C(C(=O)NCC(c2ccccc2)c2ccccc2)N(CCc2c[nH]cn2)C(=O)c2ccccc2C(=O)c2ccccc2)cc1 (stereo not shown) [Compound 51]	5.45	–
O=C(c1ccccc1)c1ccccc1C(=O)N(CCc1c[nH]cn1)C(C(=O)NCC(c1ccccc1)c1ccccc1)c1ccc(-c2ccccc2)o1 (stereo not shown) [Compound 52]	5.46	–
N#Cc1cccc(C(C(=O)NCC(c2ccccc2)c2ccccc2)N(CCc2c[nH]cn2)C(=O)c2ccccc2COc2ccccc2)c1 (stereo not shown) [Compound 53]	5.15	–
N#Cc1cccc(C(C(=O)NCC(c2ccccc2)c2ccccc2)N(CCc2c[nH]cn2)C(=O)c2ccccc2C(=O)OCc2ccccc2)c1 (stereo not shown) [Compound 55]	5.12	–
CN(C)CCN(C(=O)c1ccccc1C(=O)c1ccccc1)C(C(=O)NCC(c1ccccc1)c1ccccc1)c1ccccc1 (stereo not shown) [Compound 56]	5.18	–
COc1ccc(Oc2cccc(C(C(=O)NCc3cc(OC)c(OC)c(OC)c3)N(C(=O)CC(c3ccccc3)c3ccccc3)c3ccccc3C(N)=O)c2)cc1 (stereo not shown) [Compound 57]	–	56
O=C(NCC(c1ccccc1)c1ccccc1)C(c1ccccc1)N(CCc1c[nH]cn1)C(=O)c1cccc2c1-c1ccccc1C2 (stereo not shown) [Compound 58]	–	50
N#Cc1cccc(C(C(=O)NCC(c2ccccc2)c2ccccc2)N(CCc2c[nH]cn2)C(=O)CCCCc2ccccc2)c1 (stereo not shown) [Compound 60]	–	50
O=C(c1ccc(Cl)cc1)c1ccccc1C(=O)N(CCCn1ccnc1)C(C(=O)NCC(c1ccccc1)c1ccccc1)c1ccccc1 (stereo not shown) [Compound 61]	–	51
O=C(c1ccccc1)c1ccccc1C(=O)N(CCc1c[nH]cn1)C(C(=O)NCC(c1ccccc1)c1ccccc1)C(c1ccccc1)c1ccccc1 (stereo not shown) [Compound 62]	–	59
CN(C)CCCN(C(=O)c1ccccc1C(=O)c1ccccc1)C(C(=O)NC(C)(C)CC(C)(C)C)c1cccc(C#N)c1 (stereo not shown) [Compound 63]	–	55
N#Cc1cccc(C(C(=O)NC(Cc2ccccc2)c2ccccc2)N(CCc2c[nH]cn2)C(=O)c2ccccc2C(=O)c2ccc(Cl)cc2)c1 (stereo not shown) [Compound 64]	–	63
CCCCc1ccc(C(=O)N(CCc2c[nH]cn2)C(C(=O)NCCC(c2ccccc2)c2ccccc2)c2ccccc2)cc1 (stereo not shown) [Compound 65]	–	52
COc1cccc(C(=O)N(CCc2c[nH]cn2)C(C(=O)NCCC(c2ccccc2)c2ccccc2)c2cccc(C#N)c2)c1OC (stereo not shown) [Compound 66]	–	51
N#Cc1cccc(C(C(=O)NCCC(c2ccccc2)c2ccccc2)N(CCc2c[nH]cn2)C(=O)Cc2ccc3ccccc3c2)c1 (stereo not shown) [Compound 67]	–	52
N#Cc1cccc(C(C(=O)NCCC(c2ccccc2)c2ccccc2)N(CCc2c[nH]cn2)C(=O)c2cccc3ccccc23)c1 (stereo not shown) [Compound 68]	–	57
N#Cc1cccc(C(C(=O)NCCC(c2ccccc2)c2ccccc2)N(CCc2c[nH]cn2)C(=O)CCC2CCCCC2)c1 (stereo not shown) [Compound 69]	–	61
COc1cccc(C(=O)N(CCc2c[nH]cn2)C(C(=O)NCCC(c2ccccc2)c2ccccc2)c2cccc(C#N)c2)c1 (stereo not shown) [Compound 70]	–	58
COc1ccc(CCNC(=O)C(c2cccc(C#N)c2)N(CCc2c[nH]cn2)C(=O)c2cccn2C)cc1 (stereo not shown) [Compound 71]	–	57
COc1ccc(CCNC(=O)C(c2cccc(C#N)c2)N(CCc2c[nH]cn2)C(=O)CCC2CCCC2)cc1 (stereo not shown) [Compound 72]	–	57
COc1ccc(CCNC(=O)C(c2cccc(C#N)c2)N(CCc2c[nH]cn2)C(=O)CCC(C)=O)cc1 (stereo not shown) [Compound 73]	–	76
COc1ccc(CCNC(=O)C(c2cccc(C#N)c2)N(CCc2c[nH]cn2)C(=O)c2cnc3ccccc3n2)cc1 (stereo not shown) [Compound 74]	–	55

SMILES	pIC50	inhibition at 1 µM [%]
COc1ccc(CCNC(=O)C(c2cccc(C#N)c2)N(CCc2c[nH]cn2)C(=O)Cc2c(C)[nH]c3ccccc23)cc1 (stereo not shown) [Compound 75]	–	67
COc1ccc(CCNC(=O)C(c2cccc(C#N)c2)N(CCc2c[nH]cn2)C(=O)CCCc2c[nH]c3ccccc23)cc1 (stereo not shown) [Compound 76]	–	56
COc1ccc(CCNC(=O)C(c2cccc(C#N)c2)N(CCc2c[nH]cn2)C(=O)Cc2c[nH]c3ccccc23)cc1 (stereo not shown) [Compound 77]	–	54
COc1ccc(CCNC(=O)C(c2cccc(C#N)c2)N(CCc2c[nH]cn2)C(=O)Cc2c[nH]c3ccc(Br)cc23)cc1 (stereo not shown) [Compound 78]	–	60
COc1ccc(CCNC(=O)C(c2cccc(C#N)c2)N(CCc2c[nH]cn2)C(=O)c2cccc(Cl)c2)cc1 (stereo not shown) [Compound 79]	–	62
N#Cc1cccc(C(C(=O)NCC(c2ccccc2)c2ccccc2)N(CCc2c[nH]cn2)C(=O)c2cnc3ccccc3n2)c1 (stereo not shown) [Compound 80]	–	53
N#Cc1cccc(C(C(=O)NCC(c2ccccc2)c2ccccc2)N(CCc2c[nH]cn2)C(=O)c2c[nH]nc2N)c1 (stereo not shown) [Compound 81]	–	50
N#Cc1cccc(C(C(=O)NCC(c2ccccc2)c2ccccc2)N(CCc2c[nH]cn2)C(=O)C(O)Cc2c[nH]c3ccccc23)c1 (stereo not shown) [Compound 82]	–	55
N#Cc1cccc(C(C(=O)NCC(c2ccccc2)c2ccccc2)N(CCc2c[nH]cn2)C(=O)c2cccc(F)c2)c1 (stereo not shown) [Compound 83]	–	56
N#Cc1cccc(C(C(=O)NCC(c2ccccc2)c2ccccc2)N(CCc2c[nH]cn2)C(=O)CCCc2c[nH]c3ccccc23)c1 (stereo not shown) [Compound 84]	–	52
N#Cc1cccc(C(C(=O)NCC(c2ccccc2)c2ccccc2)N(CCc2c[nH]cn2)C(=O)Cc2c[nH]c3ccc(Br)cc23)c1 (stereo not shown) [Compound 85]	–	52
COc1cccc(C(=O)N(CCc2c[nH]cn2)C(C(=O)NCC(c2ccccc2)c2ccccc2)c2cccc(C#N)c2)c1 (stereo not shown) [Compound 86]	–	53
N#Cc1cccc(C(C(=O)NC(c2ccccc2)c2ccccc2)N(CCc2c[nH]cn2)C(=O)C(O)c2ccccc2)c1 (stereo not shown) [Compound 87]	–	50
N#Cc1cccc(C(C(=O)NC(c2ccccc2)c2ccccc2)N(CCc2c[nH]cn2)C(=O)c2ccccc2-c2ccccc2)c1 (stereo not shown) [Compound 88]	–	53
N#Cc1cccc(C(C(=O)NC(c2ccccc2)c2ccccc2)N(CCc2c[nH]cn2)C(=O)c2ccccc2Oc2ccccc2)c1 (stereo not shown) [Compound 89]	–	56
N#Cc1cccc(C(C(=O)NC(c2ccccc2)c2ccccc2)N(CCc2c[nH]cn2)C(=O)c2cccs2)c1 (stereo not shown) [Compound 90]	–	51
N#Cc1cccc(C(C(=O)NCCC(c2ccccc2)c2ccccc2)N(CCc2c[nH]cn2)C(=O)c2ccccc2C(=O)c2ccc(Cl)cc2)c1 (stereo not shown) [Compound 91]	–	71
COc1ccc(CCNC(=O)C(c2cccc(C#N)c2)N(CCc2c[nH]cn2)C(=O)C(C)C)cc1 (stereo not shown) [Compound 92]	–	52
Cc1nn(-c2nccc(-c3ccccn3)n2)c(C)c1Oc1ccc(C(C)C)cc1 [Compound 97, 2-[4-(4-Isopropyl-phenoxy)-3,5-dimethyl-pyrazol-1-yl]-4-pyridin-2-yl-pyrimidine]	6.40	–
Cc1nn(-c2nccc(-c3ccccn3)n2)c(C)c1Oc1ccc(CN2CCN(Cc3ccccc3)CC2)cc1 [Compound 104, 2-{4-[4-(4-Benzyl-piperazin-1-ylmethyl)-phenoxy]-3,5-dimethyl-pyrazol-1-yl}-4-pyridin-2-yl-pyrimidine]	7.30	–
Nc1nc(-c2ccccn2)nc(-n2nc(-c3ccc(Cl)cc3)nc2Cc2ccccc2)n1 [Compound 133, 4-[5-Benzyl-3-(4-chloro-phenyl)-[1,2,4]triazol-1-yl]-6-pyridin-2-yl-[1,3,5]triazin-2-ylamine]	4.71	–
